The source of these data is publication PMC5854716, “Synthesis, molecular docking, ctDNA interaction, DFT calculation and evaluation of antiproliferative and anti-Toxoplasma gondii activities of 2,4-diaminotriazine-thiazole derivatives” (Medicinal Chemistry Research, 2018).

The structures appear in SMILES notation.

The test system of series [1] is biphenotypic B myelomonocytic leukemia MV4-11 cells. As to the kind of experiment: In vitro antiproliferative assay (MTT), MV4-11. The conditions noted are these: mean ± SD; for IC50: Homo sapiens, MV4-11, 72 h exposure; for IC50 MV4-11: 72 h exposure. Type of series: cell-based, human. How it is done:
Biphenotypic B myelomonocytic leukemia MV4-11, human lung carcinoma A549, human breast carcinoma MCF-7, and normal mouse fibroblast BALB/3T3 cells were obtained from American Type Culture Collection (Rockville, Maryland, USA). All the cell lines are being maintained at the Institute of Immunology and Experimental Therapy, Wroclaw, Poland. MV4-11 cells were cultured in RPMI 1640 medium (Gibco, UK) with 2 mM L-glutamine adjusted to contain 1.0 mM sodium pyruvate, and 10% fetal bovine serum (FBS) (all from Sigma-Aldrich, Germany). A549 cells were cultured in RPMI 1640+ Opti-MEM (1:1) (both from Gibco, UK), MCF-7 cells in Eagle medium (IIET, Wroclaw, Poland), BALB/3T3 in Dulbecco medium (IIET, Poland) supplemented with 2 mM L-glutamine and 1.0 mM sodium pyruvate, 10% fetal bovine serum (all from Sigma-Aldrich, Germany). The MCF-7 cell culture was supplemented with 0.8 mg/l of insulin (Sigma-Aldrich, Germany). All culture media were supplemented with 100 units/ml penicillin, and 100 µg/ml streptomycin (both from Polfa Tarchomin S.A., Poland). All cell lines were grown at 37 °C with 5% CO2 humidified atmosphere (Łączkowski et al. [2014], [2016a]).
Prior to usage, the compounds were dissolved in DMSO and culture medium (1: 9) to the concentration of 1 mg/ml, and subsequently diluted in culture medium to reach the required concentrations (0.1, 1, 10, and 100 µg/ml) (Łączkowski et al. [2014], [2016a]).
Twenty-four hours prior to the addition of the tested compounds, the cells counted using Burker hemocytometer were plated in 96-well plates (Sarstedt, Germany) at a density of 1 × 10^4 cells per well. The assay was performed after 72 h of exposure to varying concentrations of the tested agents. The in vitro cytotoxic effect of all agents was examined using the SRB assay for adherent cells (A549, MCF-7, and BALB/3T3) or MTT assay for leukemia cells (MV4-11) as described previously. The results were calculated as an inhibitory concentration 50 (IC50)—the concentration of tested agent which inhibits proliferation of 50% of the cancer cell population. Each compound in each concentration was tested in triplicate in a single experiment, which was repeated 3–7 times (Rubinstein et al. [1990]; Bramson et al. [1995]).
Twenty microliter of MTT solution (MTT: 3-(4,5-dimethylthiazol-2-yl)-2,5-diphenyltetrazolium bromide, stock solution: 5 mg/ml) was added to each well and incubated for 4 h. After the incubation time was complete, 80 µl of the lysis mixture was added to each well (lysis mixture: 225 ml dimethylformamide, 67.5 g sodium dodecyl sulfate and 275 ml of distilled water). The optical densities of the samples were read after 24 h on a Synergy H4 (BioTek Instruments USA) photometer microtiter plate reader at 570 nm (Sidoryk et al. [2012]). All of chemicals were obtained from Sigma-Aldrich, Germany.

The term melting point denotes the temperature of the solid-liquid transition. Usually IC50 stands for the midpoint of a concentration-inhibition curve.

In the case of `C/C(=N\Nc1nc(-c2ccc(F)cc2)cs1)c1ccc(Nc2nc(N)nc(N)n2)cc1` [Compound 4a, (E)-N^2-(4-(1-(2-(4-(4-fluorophenyl)-1,3-thiazol-2-yl)hydrazinylidene)ethyl)phenyl)-1,3,5-triazine-2,4,6-triamine], the melting point was in the range of 223 to 225 °C. Also, the IC50 in series [1] was 3.21 ± 0.454 µg/mL.

For `C/C(=N\Nc1nc(-c2ccc(Cl)cc2)cs1)c1ccc(Nc2nc(N)nc(N)n2)cc1` [Compound 4b, (E)-N^2-(4-(1-(2-(4-(4-chlorophenyl)-1,3-thiazol-2-yl)hydrazinylidene)ethyl)phenyl)-1,3,5-triazine-2,4,6-triamine], the melting point was in the range of 237 to 239 °C. Also, the half-maximal inhibitory concentration (IC50) in series [1] is 1.89 ± 0.45 µg/mL. For `C/C(=N\Nc1nc(-c2ccc(C)cc2)cs1)c1ccc(Nc2nc(N)nc(N)n2)cc1` [Compound 4c, (E)-N^2-(4-(1-(2-(4-(4-tolyl)-1,3-thiazol-2-yl)hydrazinylidene)ethyl)phenyl)-1,3,5-triazine-2,4,6-triamine], in that order: 231 to 233 °C and 3.09 ± 0.726 µg/mL. As to `C/C(=N\Nc1nc(-c2ccc(Br)cc2)cs1)c1ccc(Nc2nc(N)nc(N)n2)cc1` [Compound 4d, (E)-N^2-(4-(1-(2-(4-(4-bromophenyl)-1,3-thiazol-2-yl)hydrazinylidene)ethyl)phenyl)-1,3,5-triazine-2,4,6-triamine], the melting point was in the range of 226 to 230 °C. The half-inhibitory concentration (IC50) in series [1] was determined as 2.14 ± 0.464 µg/mL. Taken in the same sequence, the figures for `C/C(=N\Nc1nc(-c2ccc(I)cc2)cs1)c1ccc(Nc2nc(N)nc(N)n2)cc1` [Compound 4e, (E)-N^2-(4-(1-(2-(4-(4-iodophenyl)-1,3-thiazol-2-yl)hydrazinylidene)ethyl)phenyl)-1,3,5-triazine-2,4,6-triamine] were 248 to 251 °C and 1.13 ± 0.25 µg/mL.

With `C/C(=N\Nc1nc(-c2cc3ccccc3oc2=O)cs1)c1ccc(Nc2nc(N)nc(N)n2)cc1` [Compound 4f, (E)-3-(2-(2-(1-(4-(4,6-diamino-1,3,5-triazin-2-yloamino)phenyl)ethylidene)hydrazinyl)thiazol-4-yl)-2H-chromen-2-on], the “IC50 MV4-11” value in series [1] worked out at 3.08 ± 0.851 µg/mL. Same read-out and setting: next, `CC(=O)Nc1ccc(-c2csc(N/N=C(\C)c3ccc(Nc4nc(N)nc(N)n4)cc3)n2)cc1` [Compound 4g, (E)-N^2-(4-(2-(2-(1-(4-(4,6-diamino-1,3,5-triazin-2-yloamino)phenyl)ethylidene)hydraziny)thiazol-4-yl)phenyl)-acetamide]: 2.76 ± 0.521 µg/mL. For the compound `C/C(=N\Nc1nc(-c2ccc([N+](=O)[O-])cc2)cs1)c1ccc(Nc2nc(N)nc(N)n2)cc1` [Compound 4h, (E)-N^2-(4-(1-(2-(4-(4-nitrophenyl)-1,3-thiazol-2-yl)hydrazinylidene)ethyl)phenyl)-1,3,5-triazine-2,4,6-triamine], in series [1], the IC50 stood at 3.01 ± 0.476 µg/mL. On the same count and under the same terms, next, `C/C(=N\Nc1nc(-c2ccc(Cl)c(Cl)c2)cs1)c1ccc(Nc2nc(N)nc(N)n2)cc1` [Compound 4i, (E)-N^2-(4-(1-(2-(4-(3,4-dichlorophenyl)-1,3-thiazol-2-yl)hydrazinylidene)ethyl)phenyl)-1,3,5-triazine-2,4,6-triamine]: 1.37 ± 0.186 µg/mL. As for `C/C(=N\Nc1nc(-c2ccc(NS(C)(=O)=O)cc2)cs1)c1ccc(Nc2nc(N)nc(N)n2)cc1` [Compound 4j, (E)-N-(4-(2-(2-(1-(4-(4,6-diamino-1,3,5-triazin-2-yloamino)phenyl)ethylidene)hydrazinyl)thiazol-4-yl)phenyl)-methanesulfonamide], in series [1], the “IC50 MV4-11” value is 1.73 ± 0.091 µg/mL. On to `C/C(=N\Nc1nc(-c2ccccc2)cs1)c1ccc(Nc2nc(N)nc(N)n2)cc1` [Compound 4k, (E)-N^2-(4-(1-(2-(4-phenyl-1,3-thiazol-2-yl)hydrazinylidene)ethyl)phenyl)-1,3,5-triazine-2,4,6-triamine], for which the melting point was > 300 °C. Also, the IC50 in series [1] stood at 2.3 ± 0.97 µg/mL.
